Source: patent EP0533240A2, “Substituted amine derivatives of piperazinylcamphorsulfonyl oxytocin antagonists” (MERCK & CO. INC., priority 1991, dated 1993)
pIC50: −log10 of the molar value.

Target: T1, uterine OT receptors (Rattus norvegicus, UniProt P70536)
T1 construct: from tissue; host or cells: uterus of DES-treated rats, crude membrane preparation
T1 sequence (P70536 1-388): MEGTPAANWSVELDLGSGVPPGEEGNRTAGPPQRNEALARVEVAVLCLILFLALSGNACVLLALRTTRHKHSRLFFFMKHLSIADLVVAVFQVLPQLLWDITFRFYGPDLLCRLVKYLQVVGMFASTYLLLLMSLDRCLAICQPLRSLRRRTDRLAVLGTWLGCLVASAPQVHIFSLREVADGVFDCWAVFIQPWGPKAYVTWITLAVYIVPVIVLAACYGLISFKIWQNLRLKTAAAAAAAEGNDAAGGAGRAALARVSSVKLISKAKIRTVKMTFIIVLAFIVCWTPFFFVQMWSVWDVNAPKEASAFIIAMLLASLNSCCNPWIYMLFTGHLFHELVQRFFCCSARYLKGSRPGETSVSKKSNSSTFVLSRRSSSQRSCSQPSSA
Assay: [3H]Oxytocin radioligand binding assay, crude uterine membrane preparation
Set-up: species or system rats
Conditions: for pIC50: competition with 1 nM [3H]OT, 60 minutes, 22 °C, membranes of uteri from DES-treated rats; for inhibition at 1 µM: at 1,000 nM compound

[1] = 1 nM [3H]OT, rat uterine membranes
[2] = at 100 nM compound, 1 nM [3H]OT, rat uterine membranes

Procedure: Oxytocin (OT)([tyrosyl, 3,5-[^3H]OT; 30-60 Ci/mmol; New England Nuclear. Boston, MA) to uterine OT receptors was based on an assay*using a crude membrane preparation of uteri taken from diethylstilbestrol dipropionate (DES)-treated (0.3 mg/kg, ip; 18-24) rats. Competetion studies were conducted at equilibrium (60 minutes; 22 °C) using 1 nM[^3H]OT in the following assay buffer: 50 mM Tris-HCI, 5 mM MgCl2, and 0.1% BSA, pH 7.4. Nonspecific binding (10% of the total binding) was determined using 1µM unlabeled OT and the binding reaction was terminated by filtration through glass fiber filters using a cell harvester (model 7019, Skatron, Inc., Sterling, VA).

Structure (SMILES) | pIC50 | inhibition at 1 µM [1] [%] | further results
COC(=O)C1CC(=O)N(CC(C)C2(O)CC3CCC2(CS(=O)(=O)N2CCN(c4ccccc4C)CC2)C3(C)C)C1 (stereo not drawn) [Example 26] | 7.46 | – | –
Cc1ccccc1N1CCN(S(=O)(=O)CC23CCC(CC2NC(=O)OCc2ccccc2)C3(C)C)CC1 (stereo not drawn) [Example 39] | – | 54 | –
Cc1ccccc1N1CCN(S(=O)(=O)CC23CCC(CC2=O)C3(C)C)CC1=O (stereo not drawn) [Example 30] | – | – | inhibition at 10 µM (at 10,000 nM compound, 1 nM [3H]OT, rat uterine membranes): 16%
Cc1ccccc1N1CCN(S(=O)(=O)CC23CCC(CC2N(C)C(=O)OCc2ccccc2)C3(C)C)CC1 (stereo not drawn) [Example 40] | – | 35 | –
Cc1ccccc1N1CCN(S(=O)(=O)CC23CCC(CC2NC(=O)C(C)c2c[nH]cn2)C3(C)C)CC1 (stereo not drawn) [Example 44, 1-((7,7-DIMETHYL-2-ENDO-(2-(4-IMIDAZOLYL)PROPANOYL)AMINO-BICYCLO(2.2.1 )HEPTAN-1-YL)-METHANESULFONYL)-4-(2-METHYLPHENYL)-3-PIPERAZINE] | 6.74 | – | –
CCOC(=O)CN1CCCC(C(=O)NC(C)CC2(O)CC3CCC2(CS(=O)(=O)N2CCN(c4ccccc4C)CC2)C3(C)C)C1 (stereo not drawn) [Example 57] | – | – | inhibition at 100 nM [2]: 66% inhibition at 100 nM
Cc1ccccc1N1CCN(S(=O)(=O)CC23CCC(CC2=CCNCC(C)C)C3(C)C)CC1 (stereo not drawn) [Example 14, 1-((7,7-dimethyl-2-(2-isobutylamino)ethylidine-bicyclo (2.2.1)heptan-1-yl)methanesulfonyl)-4-(2-methylphenyl) piperazine] | 5.96 | – | –
Cc1ccccc1N1CCN(S(=O)(=O)CC23CCC(CC24CO4)C3(C)C)CC1 (stereo not drawn) [Example 18] | – | 75 | –
Cc1ccccc1N1CCN(S(=O)(=O)CC23CCC(CC2O)C3(C)C)C(C)C1 (stereo not drawn) [Example 32] | – | 37 | –
Cc1ccccc1N1CCN(S(=O)(=O)CC23CCC(CC2(O)C(C)CNC(=O)C2CCN(CC(=O)O)CC2)C3(C)C)CC1 (stereo not drawn) [Example 58, 1-((7,7-DIMETHYL-2-EXO-HYDROXY-2-ENDO-2-(1-(4-(1-CARBOXYMETHYL)PIPERIDINYLCARBONYL)-AMINO)PROPYL-BICYCLO (2.2.1)HEPTAN-1-YL)METHANESULFONYL)-4-(2-METHYLPHENYL) PIPERAZINE] | 7.25 | – | –
Cc1ccccc1N1CCN(S(=O)(=O)CC23CCC(CC2(O)C(C)C#N)C3(C)C)CC1 (single isomer, unassigned) [Example 2, 1-((7,7-DIMETHYL-2-EXO-HYDROXY-2-ENDO-(1-CYANO)ETHYL-BICYCLO(2.2.1)HEPTAN-1-YL)-METHANESULFONYL)-4-(2-METHYL PHENYL)PIPERAZINE] | 6.82 | – | –
COC(=O)CCNCC(C)C1(O)CC2CCC1(CS(=O)(=O)N1CCN(c3ccccc3C)CC1)C2(C)C (stereo not drawn) [Example 10] | – | – | inhibition at 0.1 µM [2]: 48%
